According to patent publication US9296776B2, “Substituted nucleoside derivatives with antiviral and antimicrobial properties” (Eastern Virginia Medical School, priority 2007, dated 2016):
In brackets after ≈: the same amount, converted by molar mass. Read-outs that look alike come from different tables or passages of the source.

Key:
[1] = system: HIV-1 IIIB (cell-free virus); test: microbe, parasite or virus in culture; format: cell-based; conditions: for IC50 Cell-Free Virus IIIB / IC50: Table 1; for IC50: read-out: IC50 Cell-Free Virus IIIB; for EC50 Cell-Free Virus IIIB: Table 4
[2] = Cytotoxicity (Tables 4, 6, 8)
[3] = system: HIV-1 BaL (cell-free virus); test: Single-round infection assay, cell-free virus BaL; format: cell-based; conditions: for IC50 Cell-Free Virus BaL / IC50: Table 1, 2 h incubation, wash, 48 h culture; for IC50: read-out: IC50 Cell-Free Virus BaL; for EC50 Cell-Free Virus BaL: Table 4
[4] = system: Cell-associated HIV-1, SupT1 (IIIB); test: Single-round infection assay, cell-associated virus SupT1 (IIIB); format: cell-based; conditions: for IC50 Cell-Associated Virus SupT1 (IIIB) / IC50: Table 1, 2 h incubation, wash, 48 h culture; for IC50: Human immunodeficiency virus 1, IIIB, SUP-T1, read-out: IC50 Cell-Associated Virus SupT1 (IIIB); for EC50 Cell-Associated Virus SupT1-IIIB: Table 4
[5] = system: HIV-1 clinical isolate R5 = 92TH014; test: Antiviral activity against HIV-1 clinical isolate R5, p24 level (ELISA); format: cell-based; conditions: Table 5, 6 h incubation then 6 days
[6] = system: Multidrug resistant virus 7324-1; test: Antiviral activity against multidrug resistant HIV-1 clinical isolate, p24 level (ELISA); format: cell-based; conditions: Table 5, MDR = 7324-1, 6 h incubation then 6 days
[7] = Table 8, 2 h incubation, wash, 48 h culture
[8] = Table 8, 2 h incubation, wash, 48 h culture, read-out: EC50 Cell-free HIV-1 (IIIB)
[9] = 2 h incubation, wash, 48 h culture
[10] = Human immunodeficiency virus 1, IIIB, 2 h incubation, wash, 48 h culture
[11] = Human immunodeficiency virus 1, BAL

## CCCCCCCCCCCCCC(=O)OCC(NC(C)=O)C(=O)NCCC(=O)NC(CCC(=O)OC[C@H]1O[C@@H](n2cc(C)c(=O)[nH]c2=O)C[C@@H]1F)C(=O)NCC(=O)O (some centres unmarked) [KPH-94, Myristoylserine-FLT(glutamyl)glycine]
[1]; [7]
  EC50 Cell-free HIV-1 (IIIB): 9.3 µg/mL (≈ 11.1 µM)
[1]; [8]
  EC50: 11.1 µM
[2]
  CC50: > 100 µg/mL

## CCCCCCCCCCCCCC(=O)OCC(NC(C)=O)C(=O)NCCC(=O)NC(CCC(=O)OC[C@H]1O[C@@H](n2cc(C)c(=O)[nH]c2=O)C[C@@H]1N=[N+]=[N-])C(=O)NCC(=O)O (some centres unmarked) [KPH-95, Myristoylserine-AZT(glutamyl)glycine]
[1]; [7]
  EC50 Cell-free HIV-1 (IIIB): 54.5 µg/mL (≈ 63.1 µM)
[1]; [8]
  EC50: 63.1 µM
[2]
  CC50: > 100 µg/mL

## [N-]=[N+]=NCCCCCCCCCCCC(=O)Nc1ccn(C2CSC(COC(=O)CCCCCCCCCCCN=[N+]=[N-])O2)c(=O)n1 (centres unmarked) [N4, 5′-O-di(12-azidodecanoyl)-2′,3′-dideoxy-3′-thiacytidine]
[1]; [9]
  IC50 Cell-Free Virus IIIB: >100 µg/mL
[3]
  IC50 Cell-Free Virus BaL: 49.1 µg/mL (≈ 72.6 µM)
[4]
  IC50 Cell-Associated Virus SupT1 (IIIB): >100 µg/mL

## CCCCCCCCCCCCCC(=O)Nc1ccn([C@H]2CS[C@@H](COC(=O)CCCCCCCCCCCCC)O2)c(=O)n1 [N4, 5′-O-dimyristoyl-2′,3′-dideoxy-3′-thiacytidine]
[1]; [10]
  IC50: > 100 µg/mL
[3]; [11]
  IC50: 87.8 µg/mL (≈ 135 µM)
[4]
  IC50: > 100 µg/mL

## [N-]=[N+]=NCCCCCCCCCCCC(=O)Nc1ccn([C@H]2CS[C@@H](CO)O2)c(=O)n1 [N4-(12-azidodecanoyl)-2′,3′-dideoxy-3′-thiacytidine]
[1]; [9]
  IC50 Cell-Free Virus IIIB: 13.3 µg/mL (≈ 29.4 µM)
[3]
  IC50 Cell-Free Virus BaL: 1.7 µg/mL (≈ 3.76 µM)
[4]
  IC50 Cell-Associated Virus SupT1 (IIIB): 6.6 µg/mL (≈ 14.6 µM)

## CCSCCCCCCCCCCCC(=O)Nc1ccn([C@H]2CS[C@@H](CO)O2)c(=O)n1 [N4-(13-thiapentadecanoyl)-2′,3′-dideoxy-3′-thiacytidine]
[1]; [10]
  IC50: 2.5 µg/mL (≈ 5.3 µM)
[3]; [11]
  IC50: 0.2 µg/mL (≈ 0.424 µM)
[4]
  IC50: > 100 µg/mL

## CCCCCCCCCCCCCC(=O)Nc1ccn([C@H]2CS[C@@H](CO)O2)c(=O)n1 [N4-tetradecanoyl-2′,3′-dideoxy-3′-thiacytidine]
[1]; [10]
  IC50: 4.8 µg/mL (≈ 10.9 µM)
[3]; [11]
  IC50: 0.3 µg/mL (≈ 0.682 µM)
[4]
  IC50: 0.3 µg/mL (≈ 0.682 µM)

## Cc1ccc(C(=O)Nc2ccc(S(=O)(=O)O)c3cc(S(=O)(=O)O)cc(S(=O)(=O)O)c23)cc1NC(=O)c1cccc(NC(=O)Nc2cccc(C(=O)Nc3cc(C(=O)Nc4ccc(S(=O)(=O)O)c5cc(S(=O)(=O)O)cc(S(=O)(=O)O)c45)ccc3C)c2)c1 [Suramin, reference compound]
[1]; Human immunodeficiency virus 1, IIIB, read-out: EC50 Cell-Free Virus IIIB
  EC50: 49.1 µg/mL
In vitro
  CC50: > 100 µg/mL
[3]; Human immunodeficiency virus 1, BAL, Table 6
  EC50: 1 µg/mL (≈ 0.771 µM)

## Sodium Cellulose Sulfate-Acetate-AZT (1.73%) [CS-Ac-AZT]
[5]
  IC50: 3.52 µg/mL
[1]
  EC50 Cell-Free Virus IIIB: 2.5 µg/mL
[1]; based on CS ~2×10^6 Daltons
  potency against cell-free virus relative to AZT, in moles: 5 orders of magnitude
[6]
  IC50: 4.22 µg/mL
[3]
  EC50 Cell-Free Virus BaL: 8.1 µg/mL
[4]
  EC50 Cell-Associated Virus SupT1-IIIB: 5.6 µg/mL

## Sodium Cellulose Sulfate-Acetate-FLT (1.45%) [CS-Ac-FLT]
[5]
  IC50: 2.67 µg/mL
[1]
  EC50 Cell-Free Virus IIIB: 2.3 µg/mL
[6]
  IC50: 0.50 µg/mL
[3]
  EC50 Cell-Free Virus BaL: 1.5 µg/mL
[4]
  EC50 Cell-Associated Virus SupT1-IIIB: 5.8 µg/mL

## Sodium cellulose sulfate-succinate-AZT (17.2%) [CS-Suc-AZT]
[1]
  EC50 Cell-Free Virus IIIB: 2.2 µg/mL
[3]
  EC50 Cell-Free Virus BaL: 9.9 µg/mL
[4]
  EC50 Cell-Associated Virus SupT1-IIIB: 74.8 µg/mL
